Assay results reported in patent US7247714B2, “Protection against oxidative stress and inflammation by a cytoprotective response element” (Atherogenics, Inc., priority 2001, dated 2007).
Entries after “also recorded” stand apart in the source; their conditions may differ.

How the values were obtained:
p3xCPRE/Luc [1] = test: Activation of p3xCPRE/Luc by small molecular weight organic compounds (Table 6); format: cell-based, human; settings: luciferase activity 16 hours after exposure
Method: In the in vitro assay system described above, a stable HeLa cell line was generated that contains a stably-integrated copy of the CPRE-Luc gene.
HMECs and HeLa cells were transiently transfected with 1 μg of 3xCPRE-Luc and 0.1 μg of pRL-SV40. One day after transfection, cells were treated with the compounds listed in Table 6 Luciferase activities were determined 16 hours after exposure to the compounds. To generate stable HeLa cell lines that contain a stably-integrated copy of the CPRE-Luc gene, HeLa cells were transfected with p3xCPRE-Luc plus pcDNA-LacZ-Hyg (an expression vector containing the hygromycin drug resistance gene) using SuperFeet transfection reagent. Two days after transfection, cells were cultured in hygromycin (400 μg/ml)-containing selection medium until individual colonies were identified. The colonies were expanded and the presence of CPRE-Luc-containing clones was examined by inducible luciferase activity. […]

[2] = test system: murine model of allergen-induced peritonitis; test: Murine model of allergen-induced peritonitis (Type 1 hypersensitivity), eosinophil recruitment; format: in vivo, mouse; settings: Compound A 50 mg/kg/d intravenous, 1 or 4 hours prior to ovalbumin challenge
Method: To evaluate the anti-inflammatory potential of compound A, a murine model of Type 1 hypersensitivity was used. In this model mice are sensitized to ovalbumin and subsequently challenged with ovalbumin by intraperitoneal injection. This leads to eosinophil recruitment and accumulation in the peritoneal cavity 24-48 hours after the challenge.
6-8 week old Balb/c mice (weighing 20-30 g) were given subcutaneous injections of ovalbumin in alum (0.4 ml of 100 μg ovalbumin and 3.3 mg of Alum Inject) on days 0 and 7. The mice were challenged on day 14 with an intraperitoneal injection of ovalbumin (10 μg in 0.2 ml saline). The mice were sacrificed and peritoneal lavage fluid collected 48 hours after the challenge. The peritoneal fluid was concentrated and slide smears made using a cytospin centrifuge. Slides were stained with Diff-Quik and differential counts obtained by counting 300 cells. Compound A was administered by intravenous injection, in a vehicle composed of 95% Liposyn and 5% Tween 20, 4 or 1 hour prior to challenge. Compound A was compared to dexamethosone administered orally at a dose of 2.5 mg/kg/d.
In a common allergic inflammation, balb/C mice were divided into two groups: control/vehicle and Compound G treated. They were then sensitized to ovalbumin on days 0 and 7 with a subcutaneous injection of ovalbumin absorbed in aluminum hydroxide. The treated group was dosed i.v. 50 mg/kg in liposyn/tween and vehicle one day prior to challenge. The mice were then challenged with an intraperitoneal injection of ovalbumin on day 14 and sacrificed 48 hrs post-challenge. Peritoneal fluid was collected and spun down onto slides. Slides were stained with DiffQuik and a differential performed.

[3] = test system: methylated BSA-induced model of delayed type hypersensitivity; test: Mouse delayed type hypersensitivity model (methylated BSA), paw swelling; format: in vivo; settings: Compound A 100 mg/kg intraperitoneal at -24, -1 and +6 hrs from challenge; paw weight 24 hours later
Method: Balb/C mice were divided into two groups: control/vehicle and treated. They were sensitized intradermally on day 0 with methylated BSA (metBSA), and then challenged with metBSA on day 7 in the right hind paw. Compound A was administered at a dose of 100 mg/kg to the treated group by intraperitoneal injection −24, −1 and +6 hrs from the time of challenge. All animals were sacrificed 24 hours later and the left and right hind paws weighed. The left hind paw weight was subtracted from the right hind paw to give the paw weight increase.

CPRE promoter = test: Stable HeLa cell line with stably-integrated CPRE-Luc gene; format: cell-based, human
Method: Although transient transfection methods are useful for understanding molecular mechanisms of gene expression and cellular biology, they are not suitable for high-throughput screening of libraries of compounds. Therefore, a stable HeLa cell line was generated that contains a stably-integrated copy of the CPRE-Luc gene.
(§1) HMECs and HeLa cells were transiently transfected with 1 μg of 3xCPRE-Luc and 0.1 μg of pRL-SV40. One day after transfection, cells were treated with t-BHQ or compound A. Luciferase activities were determined 16 hours after exposure to tBHQ. To generate stable HeLa cell lines that contain a stably-integrated copy of the CPRE-Luc gene, HeLa cells were transfected with p3xCPRE-Luc plus pcDNA-LacZ-Hyg (an expression vector containing the hygromycin drug resistance gene) using SuperFect transfection reagent. Two days after transfection, cells were cultured in hygromycin (400 μg/ml)-containing selection medium until individual colonies were identified. The colonies were expanded and the presence of CPRE-Luc-containing clones was examined by inducible luciferase activity. All experiments are an average of at least three independent determinations for each experimental sample.

p3xCPRE/Luc [4] = test: p3xCPRE/Luc reporter, transient transfection in HMEC cells; format: cell-based, human; settings: Compound A 10 μM
Method: (§2) In an effort to determine the utility of the CPRE-Luc reporter construct for the identification of small molecular weight compounds that activate the CPRE, the p3xCPRE/Luc reporter was transiently transfected into both HeLa and endothelial cells (HMECs). […] Similar results were obtained in HeLa cells with both t-BHQ and compound A (FIG. 12b).
as §1

VCAM-1 = test: TNF-α-activated cell surface expression of VCAM-1 in cell culture models; format: cell-based; settings: read-out: IC50, inhibition of TNF-α-activated cell surface expression of VCAM-1
p3xCPRE/Luc [5] = test: p3xCPRE/Luc reporter, transient transfection in HeLa cells; format: cell-based, human
Method: HMEC cells (passage 20) and HeLa cells were seeded into 6 well plates and were grown to approximately 60-70% confluency. Cells were transfected with 2 μg (HeLa) or 1 μg (HMEC) each of p3xCPRE/Luc reporter and Nrf-2 expression vector (an expression vector containing the full-length murine Nrf-2 gene under the control of the CMV promoter (Asakura & Karino (1990) Circ Res, 66:1045-1066). Cells were cultured for an additional 48 hours, and luciferase activity was determined (Promega). An average of at least three independent determinations were made for each experimental sample. Results are expressed as ratio of firefly/renilla luciferase.
as §2, §1

[6] = test system: murine model of aerosolized ovalbumin-induced asthma; test: Mouse asthma model, airway eosinophilia and hyperreactivity; format: in vivo
Method: Male BALB-C mice, 6 weeks of age, were randomly assigned to one of following groups: ova/ova, vehicle control, dexamethasone (3 mg/kg) treatment, and Compound A. Animals were weighed on day 0, 7, 12 and 14 and were given access to food and water ad libidum. Mice were sensitized intraperitoneally with 8 μg of ovalbumin and 1 mg of aluminum hydroxide on Day 0 and Day 5. The animals were exposed to aerosolized ovalbumin (0.5%) twice on Day 12 (1 hr & 10 minutes per exposure). The ovalbumin exposures were separated by at least 4 hours. Differentials were performed on bronchoaveolar lavage fluid on Day 14 to determine % eosinophils. Compound A was orally administered daily at a dose of 300 mg/kg from time of sensitization to termination of study to the Compound A group.

CPRE Activity: concentration to achieve a two-fold induction of CPRE activity over control (p3xCPRE/Luc [1]): 4.5 µM | IC50 (VCAM-1): ~1.4 µM
Compound: COc1cc(OC)c(-c2cc3ccccc3s2)cc1/C=C/C(=O)c1cc(OC)c(OC)c(OC)c1 [Compound A, 3-(5-Benzo-[b]-thiophene-2-yl-2,4-dimethoxy-phenyl)-1-(3,4,5-trimethoxy-phenyl)propenone]
Eosinophil levels in peritoneal fluid (percent eosinophils) [2]: significantly decreased | Eosinophil levels in peritoneal fluid (percent eosinophils) ([2]; listed as compound A): significantly significant reduction | Inhibition of paw swelling compared with the vehicle controls [3]: 79% | CPRE/Luc activity, percent increase over control (vehicle) levels, concentration-response (CPRE promoter; Hela cells, 1.25, 2.5, 5, 10, 20 and 40 μM (FIG. 14)): significantly elevated in a concentration-dependent manner | Concentration of maximum activation of the CPRE promoter (CPRE promoter; stable HeLa cell line (FIG. 14)): approximately 20 μM | p3xCPRE/Luc activity (induction of transcription from the CPRE) (p3xCPRE/Luc [4]): greater than two-fold; also recorded: significantly increased | p3xCPRE/Luc activity (p3xCPRE/Luc [5]; Compound A 10 μM): significantly increased | p3xCPRE/Luc activity (p3xCPRE/Luc [5]; compound A 15 μM (FIG. 9c)): significantly increased | p3xCPRE/Luc activity, concentration-response (p3xCPRE/Luc [5]; transient transfection, 5, 10 and 20 μM (FIG. 13)): dose-dependent response; also recorded: significantly increased | Inhibition of eosinophilia in bronchoaveolar lavage fluid compared with vehicle controls ([6]; Compound A 300 mg/kg oral daily, Day 14, p<0.05): 48% | Eosinophil levels in bronchoaveolar lavage fluid ([6]; Compound A 300 mg/kg/d oral): significantly decreased | Lung function (airway hyperreactivity to methacholine) ([6]; Compound A 300 mg/kg/d oral, 300 mg/kg/day): significantly improved lung function
